From paper PMC7377239, “Cardiovascular Effects of Polychlorinated Biphenyls and Their Major Metabolites” (Environmental Health Perspectives, 2020)
Where two headings read alike, the source gives them in different places.

What was measured:
[1] = test system: iCell endothelial cells (human iPSC-derived ECs); assay: High-content imaging cytotoxicity in iCell endothelial cells, 24 h; format: cell-based; details: Homo sapiens, Endothelial cell; for viability at 0.1 µM / activity at 0.1 µM: 0.10 µM
How it was run: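 Readouts were vehicle-normalised and fitted to a four-parameter logistic model. POD was set at one SD beyond 0.5% DMSO control means, and 100 µM was assigned when no response was seen. Cells were monolayers of iCell endothelial cells imaged after 24 h compound exposure using nuclear, mitochondrial and calcein dyes.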

HUVECs = assay: Tube formation (tubulogenesis) assay in HUVECs, 18 h; format: cell-based, human; details: Homo sapiens, HUVEC, 18 h; for activity at 0.01 µM: concentration 0.01 µM; for activity at 0.1 µM: concentration 0.10 µM; for activity at 1 µM: concentration 1.00 µM; for activity at 10 µM: concentration 10.00 µM; for activity at 100 µM: concentration 100.00 µM
How it was run: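 HUVECs (passage 1–5) seeded on reduced-growth-factor basement membrane and exposed to compounds overnight at 37°C, 5% CO2, in 2× maintenance medium with 12.5 ng/mL VEGF; 0.5% DMSO vehicle. Calcein AM-stained tube networks imaged and analysed; vehicle-normalized readouts fit to four-parameter logistic, POD set at one SD of vehicle means.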

[2] = iPSC-EC, 0.00 µM = 100.00, read-out: endo.cyto.24hr
[3] = iPSC-EC, 0.00 µM = 100.00, read-out: endo.mito.24hr
[4] = iPSC-EC, 0.00 µM = 100.00, read-out: endo.mitoint.24hr
[5] = iPSC-EC, 0.00 µM = 100.00, read-out: endo.nma.24hr
[6] = iPSC-EC, 0.00 µM = 100.00, read-out: endo.tc.24hrs
[7] = HUVECs tube formation, 0.00 µM = 100.00, read-out: huvec.mtl.18hr
[8] = HUVECs tube formation, 0.00 µM = 100.00, read-out: huvec.tlps.18hr
[9] = HUVECs tube formation, 0.00 µM = 100.00, read-out: huvec.tta.18hr
[10] = HUVECs tube formation, 0.00 µM = 100.00, read-out: huvec.ttl.18hr

With `Clc1ccc(Cl)c(-c2c(Cl)ccc(Cl)c2Cl)c1` [PCB95] the viability at 0.01 µM [1, 2] was 96.8%, the activity at 0.01 µM [1, 3] was 96.7% and the activity at 0.01 µM [1, 4] was 93.2%. For the same compound, the activity at 0.01 µM [1, 5] was 103%, the viability at 0.01 µM [1, 6] was 96.8% and the viability at 0.1 µM [1, 2] was 102%. For the same compound, the activity at 0.1 µM [1, 3] was 102%, the activity at 0.1 µM [1, 4] was 87.2% and the activity at 0.1 µM [1, 5] was 104%. The viability at 0.1 µM [1, 6] was 102%, the viability at 1 µM [1, 2] was 105% and the activity at 1 µM [1, 3] was 106%. For the same compound, the activity at 1 µM [1, 4] was 84.4%, the activity at 1 µM [1, 5] was 98.6% and the viability at 1 µM [1, 6] was 105%. It also gave a viability at 10 µM [1, 2] of 104%, an activity at 10 µM [1, 3] of 104% and an activity at 10 µM [1, 4] of 93.9%. The activity at 10 µM [1, 5] was 100%, the viability at 10 µM [1, 6] was 104% and the viability at 100 µM [1, 2] was 102%. For the same compound, the activity at 100 µM [1, 3] was 103%, the activity at 100 µM [1, 4] was 93.6% and the activity at 100 µM [1, 5] was 97.4%. The viability at 100 µM [1, 6] was 102%, the minimal effective concentration ([1]; iPSC-EC, 100.00 = highest concentration tested, read-out: endo.cyto.24hr POD) was 100 µM and the minimal effective concentration ([1]; iPSC-EC, 100.00 = highest concentration tested, read-out: endo.mito.24hr POD) was 100 µM. The minimal effective concentration ([1]; iPSC-EC, 100.00 = highest concentration tested, read-out: endo.mitoint.24hr POD) was 100 µM, the minimal effective concentration ([1]; iPSC-EC, 100.00 = highest concentration tested, read-out: endo.nma.24hr POD) was 100 µM and the minimal effective concentration ([1]; iPSC-EC, 100.00 = highest concentration tested, read-out: endo.tc.24hrs POD) was 100 µM. It also gave a minimal effective concentration (HUVECs; HUVECs tube formation, MAX 100.00, read-out: huvec.mtl.18hr POD) of 8.29 µM, a minimal effective concentration (HUVECs; HUVECs tube formation, MAX 100.00, read-out: huvec.tlps.18hr POD) of 100 µM and a minimal effective concentration (HUVECs; HUVECs tube formation, MAX 100.00, read-out: huvec.tta.18hr POD) of 100 µM. For the same compound, the minimal effective concentration (HUVECs; HUVECs tube formation, MAX 100.00, read-out: huvec.ttl.18hr POD) was 100 µM, the activity at 0.01 µM (HUVECs; [7]) was 96.9% and the activity at 0.01 µM (HUVECs; [8]) was 80.5%. The activity at 0.01 µM (HUVECs; [9]) was 75.1%, the activity at 0.01 µM (HUVECs; [10]) was 63% and the activity at 0.1 µM (HUVECs; [7]) was 82.7%. For the same compound, the activity at 0.1 µM (HUVECs; [8]) was 88.7%, the activity at 0.1 µM (HUVECs; [9]) was 71.1% and the activity at 0.1 µM (HUVECs; [10]) was 63.9%. It also gave an activity at 1 µM (HUVECs; [7]) of 104%, an activity at 1 µM (HUVECs; [8]) of 86.3% and an activity at 1 µM (HUVECs; [9]) of 78.7%. For the same compound, the activity at 1 µM (HUVECs; [10]) was 68.7%, the activity at 10 µM (HUVECs; [7]) was 87.4% and the activity at 10 µM (HUVECs; [8]) was 88.9%. It also gave an activity at 10 µM (HUVECs; [9]) of 84%, an activity at 10 µM (HUVECs; [10]) of 79.8% and an activity at 100 µM (HUVECs; [7]) of 72.8%. It also gave an activity at 100 µM (HUVECs; [8]) of 64.1%, an activity at 100 µM (HUVECs; [9]) of 68.8% and an activity at 100 µM (HUVECs; [10]) of 61.4%.
Compound `Oc1ccccc1-c1ccc(Cl)cc1` [2'-OH-PCB 3] has a minimal effective concentration ([1]; endothelial cells (endo), cyto, 24 hr, read-out: POD endo.cyto.24hr) of 44.3 µM, a minimal effective concentration ([1]; endothelial cells (endo), mito, 24 hr, read-out: POD endo.mito.24hr) of 44.3 µM and a minimal effective concentration ([1]; endothelial cells (endo), mitoint, 24 hr, read-out: POD endo.mitoint.24hr) of 100 µM. For the same compound, the minimal effective concentration ([1]; endothelial cells (endo), nma, 24 hr, read-out: POD endo.nma.24hr) was 1.82 µM, the minimal effective concentration ([1]; endothelial cells (endo), tc, 24 hr, read-out: POD endo.tc.24hr) was 68.2 µM and the minimal effective concentration (HUVECs; tube formation mtl, read-out: POD huvec.mtl.18hr) was 100 µM. For the same compound, the minimal effective concentration (HUVECs; tube formation tlps, read-out: POD huvec.tlps.18hr) was 0.57 µM, the minimal effective concentration (HUVECs; tube formation tta, read-out: POD huvec.tta.18hr) was 100 µM and the minimal effective concentration (HUVECs; tube formation ttl, read-out: POD huvec.ttl.18hr) was 100 µM.
